Laboratory results reported in patent US11034993B2, “Assay to measure factor Xa inhibitors” (McMaster University, priority 2018, dated 2021).

Tests used:
Assay type in all cases: biochemical
[1] = molecular target: T1, FXa (Homo sapiens, UniProt P00742); assay: Flu-II cleavage by residual FXa in whole blood; settings: citrated whole blood, 0 to 100 nM in blood (2 nM final, 50-fold dilution)
Target sequence in this assay (P00742 41-179 limits assumed): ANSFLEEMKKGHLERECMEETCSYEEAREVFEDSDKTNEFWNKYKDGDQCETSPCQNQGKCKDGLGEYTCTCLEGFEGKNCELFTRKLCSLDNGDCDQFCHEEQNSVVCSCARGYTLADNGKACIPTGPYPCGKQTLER
Target sequence in this assay (P00742 235-488 limits assumed): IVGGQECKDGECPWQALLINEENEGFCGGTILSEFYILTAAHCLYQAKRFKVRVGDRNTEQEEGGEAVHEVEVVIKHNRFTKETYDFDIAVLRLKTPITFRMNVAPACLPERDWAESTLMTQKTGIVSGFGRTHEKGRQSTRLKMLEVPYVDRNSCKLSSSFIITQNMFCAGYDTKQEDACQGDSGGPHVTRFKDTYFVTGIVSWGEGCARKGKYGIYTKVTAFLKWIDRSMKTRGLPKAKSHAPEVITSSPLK
Target sequence in this assay (P12259 29-737 partner limits assumed): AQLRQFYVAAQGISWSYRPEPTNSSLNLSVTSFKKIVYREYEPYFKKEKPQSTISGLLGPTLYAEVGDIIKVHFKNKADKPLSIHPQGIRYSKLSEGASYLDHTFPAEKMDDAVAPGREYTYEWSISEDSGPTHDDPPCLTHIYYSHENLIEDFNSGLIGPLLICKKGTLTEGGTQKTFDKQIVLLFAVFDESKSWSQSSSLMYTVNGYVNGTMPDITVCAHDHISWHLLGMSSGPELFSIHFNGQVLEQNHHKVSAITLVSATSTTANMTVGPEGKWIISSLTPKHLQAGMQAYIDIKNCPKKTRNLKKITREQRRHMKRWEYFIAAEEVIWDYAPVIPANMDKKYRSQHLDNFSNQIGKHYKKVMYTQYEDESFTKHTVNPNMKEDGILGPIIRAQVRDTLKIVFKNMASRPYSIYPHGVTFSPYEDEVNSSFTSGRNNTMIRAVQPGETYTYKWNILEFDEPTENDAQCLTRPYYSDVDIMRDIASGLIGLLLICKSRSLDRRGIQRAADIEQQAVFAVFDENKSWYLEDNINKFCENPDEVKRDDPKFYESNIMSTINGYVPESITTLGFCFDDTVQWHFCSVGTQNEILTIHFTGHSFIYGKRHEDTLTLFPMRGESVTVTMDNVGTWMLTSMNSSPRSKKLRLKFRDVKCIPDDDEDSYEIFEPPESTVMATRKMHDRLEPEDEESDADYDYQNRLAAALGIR
Target sequence in this assay (P12259 1574-2224 partner limits assumed): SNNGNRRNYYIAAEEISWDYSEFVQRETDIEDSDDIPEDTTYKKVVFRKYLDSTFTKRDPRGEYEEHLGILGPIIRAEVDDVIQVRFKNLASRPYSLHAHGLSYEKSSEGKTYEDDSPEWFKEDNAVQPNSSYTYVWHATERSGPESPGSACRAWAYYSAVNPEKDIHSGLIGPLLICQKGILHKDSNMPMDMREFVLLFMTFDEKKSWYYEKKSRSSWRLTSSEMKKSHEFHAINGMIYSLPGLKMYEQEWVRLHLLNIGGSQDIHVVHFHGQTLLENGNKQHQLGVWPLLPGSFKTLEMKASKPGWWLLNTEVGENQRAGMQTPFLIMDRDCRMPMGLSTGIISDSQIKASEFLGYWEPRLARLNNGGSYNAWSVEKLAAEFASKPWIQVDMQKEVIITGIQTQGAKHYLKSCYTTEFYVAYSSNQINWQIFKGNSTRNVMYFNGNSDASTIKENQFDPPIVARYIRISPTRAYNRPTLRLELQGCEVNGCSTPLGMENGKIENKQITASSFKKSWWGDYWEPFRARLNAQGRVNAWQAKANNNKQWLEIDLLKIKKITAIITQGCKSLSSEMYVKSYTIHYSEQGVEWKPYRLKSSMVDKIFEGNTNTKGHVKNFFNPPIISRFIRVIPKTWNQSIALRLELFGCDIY

[2] = molecular target: T1, FXa; assay: Rate of Flu-II cleavage by residual FXa in normal human pooled plasma; settings: rivaroxaban 0 to 5 nM, apixaban 0 to 10 nM, 0.1 nM FXa mixture
Target sequence in this assay (P00742 41-179 limits assumed): as the sequence (P00742 41-179 limits assumed) above
Target sequence in this assay (P00742 235-488 limits assumed): as the sequence (P00742 235-488 limits assumed) above
Target sequence in this assay (P12259 29-737 partner limits assumed): as the sequence (P12259 29-737 partner limits assumed) above
Target sequence in this assay (P12259 1574-2224 partner limits assumed): as the sequence (P12259 1574-2224 partner limits assumed) above

[3] = molecular target: T1, FXa; assay: Flu-II cleavage by residual FXa in individual plasma samples; settings: citrated plasma from four individuals; rivaroxaban 0 to 5 nM, apixaban 0 to 10 nM
Target sequence in this assay (P00742 41-179 limits assumed): as the sequence (P00742 41-179 limits assumed) above
Target sequence in this assay (P00742 235-488 limits assumed): as the sequence (P00742 235-488 limits assumed) above
Target sequence in this assay (P12259 29-737 partner limits assumed): as the sequence (P12259 29-737 partner limits assumed) above
Target sequence in this assay (P12259 1574-2224 partner limits assumed): as the sequence (P12259 1574-2224 partner limits assumed) above

[4] = molecular target: T1, FXa; assay: Flu-II cleavage by residual FXa in plasma with LMWH; settings: normal human pooled plasma, LMWH 0 to 1 unit/mL final
Target sequence in this assay (P00742 41-179): as the sequence (P00742 41-179 limits assumed) above
Target sequence in this assay (P00742 235-488): as the sequence (P00742 235-488 limits assumed) above
Target sequence in this assay (P01008 33-464 partner): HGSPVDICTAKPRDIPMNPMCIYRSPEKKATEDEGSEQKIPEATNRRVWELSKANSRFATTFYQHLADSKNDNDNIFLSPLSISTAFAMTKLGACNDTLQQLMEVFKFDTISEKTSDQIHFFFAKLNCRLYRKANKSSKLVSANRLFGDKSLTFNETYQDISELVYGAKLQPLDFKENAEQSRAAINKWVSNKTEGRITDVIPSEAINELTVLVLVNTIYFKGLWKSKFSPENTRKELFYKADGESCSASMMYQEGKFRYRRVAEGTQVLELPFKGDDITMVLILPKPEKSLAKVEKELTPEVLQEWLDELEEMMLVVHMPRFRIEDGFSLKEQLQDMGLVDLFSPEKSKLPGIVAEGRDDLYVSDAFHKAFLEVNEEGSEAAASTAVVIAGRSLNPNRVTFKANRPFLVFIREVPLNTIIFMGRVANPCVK

response of rate of Flu-II cleavage to levels of LMWH [4]	Compound	maximal inhibition (initial rate of Flu-II cleavage) [1]	overall inhibition of total activity (rate of Flu-II cleavage) [2]	maximal inhibition of total FXa activity [3]
	O=C(NC[C@H]1CN(c2ccc(N3CCOCC3=O)cc2)C(=O)O1)c1ccc(Cl)s1 [rivaroxaban]	~50%	~85%	~80%
sensitive to the levels of LMWH	dalteparin			
